Molecules are shown by their SMILES.

What all share (assay type): in vivo, Sprague Dawley adult albino rats
The subject of data set [1] is STZ-induced diabetic rats. The experiment in a line: STZ-induced diabetic rat model: serum biochemical parameters (liver, renal, lipid profile, HbA1c). The protocol:
All the animals were separated into nine groups having eight animals each (Table 1). In the current investigational study STZ-induced diabetic model was used to evaluate the anti-hyperglycemic and anti-hyperlipidemic activity of isolated compound morin in chronic multiple dose experiment. All the animals were treated with their respective treatments for 21 days starting daily at 09:00 am. The fasting blood glucose levels were determined at 0, 4th, 7th, 10th, 15th, and 21st days with glucometer from the tail vein. Changes in the body weight were recorded for untreated control, diabetic, and treated groups in fasting condition from day 1 to day 21 of experimental period and are presented as % increase in body weight.
According to the reported protocol diabetes was induced into Sprague Dawley adult albino rats by intraperitoneal injection of STZ (50 mg/kg body weight). Blood samples were collected from the tail vein through glucometer strips by means of SD glucometer and the level of blood glucose was measured 72 h after STZ injection. Normal control groups were given normal saline (8 mL/kg, p.o.) as a vehicle, while isolated compound morin to the treatment groups from 3 days after STZ administration for 3 weeks. Animals with blood glucose levels higher than 300 mg/dL were considered diabetic. During the experiment the blood glucose level and body weights were measured.
On 21st day of in vivo antidiabetic activity, all the animals were anesthetized by intraperitoneal (IP) injection of pentobarbital sodium (35 mg/kg body weight) and euthanized by means of cervical decapitation according to the ARRIVE guidelines. Blood samples were collected by cardiac puncture and transferred to EDTA containing tubes. Blood was centrifuged at 3500 rpm for 10 min for the separation of serum. Biochemical parameters like serum alkaline phosphatase (ALP), serum glutamate pyruvate transaminase (SGPT), serum glutamate oxaloacetate transaminase (SGOT) and lipid parameters like total cholesterol (TC), triglycerides (TG), low-density lipoproteins (LDL), high-density lipoprotein (HDL), and serum creatinine in serum were assessed by using Biochemistry analyzer (PS-520; Shenzhen Procan Electronics-China) using diagnostic kits (Reactivos, GPL Barcelona, Spain). According to the reported protocol an enzyme-linked immunosorbent assay (ELISA) kit was used to evaluate the level of glycosylated hemoglobin (HbA1c).

The nature of a further data set: Acute toxicity study. To be noted: oral 50, 100, 150, 200, 250, 300, and 500 mg/kg body weight; observed 4 h, 24 h to 1 week. The protocol: Sprague Dawley adult albino rats (body weight range = 170–200 g) were used in in vivo studies. The animals were purchased from Rifah Institute of Pharmaceutical Sciences Islamabad. The entire animals were given food and fresh water ad libitum. The animals were adjusted at room temperature around 22–25 °C. The animals were housed three rats per cage and maintained with light/dark cycle of about 12 h. All the in vivo procedures were carried out according to the ARRIVE guidelines and approval was taken from the Departmental Animal Ethical Committee (DAEC/2019/1), University of Malakand.
For acute toxicity study all the animals were treated orally with different doses (50, 100, 150, 200, 250, 300, and 500 mg/kg body weight) of isolated compound morin. After that the animals were kept under observation for 4 h for signs of toxicity (respiratory aches, convulsions, motor activity, tremors, muscle spasm, sedation, diarrhea, loss of righting reflex, hypnosis, and salivation). All the animals appeared healthy for 24 h to 1 week with no noticeable changes in appearance or behavior, and no signs of mortality were noticed. […]

The test system of data set [2] is STZ-induced diabetic rats. Put plainly: Ex vivo DPPH scavenging of pancreas tissue homogenates (intracellular ROS level). Details: dose or concentration left out as unconfirmed. The protocol: (§1) The pancreas tissue (1 g) was isolated from Sprague Dawley rats, washed with cold saline solution and blotted dried. A weighed portion of the pancreas tissue was homogenized on ice and then centrifuged for 15 min at 3500 rpm at 4 °C. The supernatant was then taken and stored at −20 °C until assessed for different enzymes.
Cellular oxidative stress due to the overproduction of reactive oxygen species (ROS) generated by streptozotocin was measured in pancreas tissues through DPPH free radical scavenging assays. Briefly, 50 µL (0.3 mM) DPPH in methanol was incubated with 100 µL supernatant of the tissue homogenates of each experimental group and […] in the dark for 30 min at room temperature. Ascorbic acid was used as the standard. The absorbance was then read against a blank at 517 nm. The percentage scavenging was calculated according to the equation No 1.
A general note: Loss of DPPH colour is used to gauge radical scavenging.

The subject of data set [3] is STZ-induced diabetic rats. The experiment in a line: Antioxidant enzymes and oxidative stress markers in pancreas tissue homogenates of STZ-induced diabetic rats. The protocol:
as §1
The activities of reduced glutathione (GSH) level were determined in the pancreatic tissues according to the previously established method. About 300 µL of tissue supernatant was centrifuged for 5 min at 3500 rpm following deproteinization with 300 µL of 10% trichloroacetic acid. In total, 200 µL of the resulting supernatant of each sample (at concentrations 2, 5, 10, 15, 30, and 50 µg/mL) was mixed with 50 µL of Ellman’s reagent (5,5′-dithiobis-(2-nitro-benzoic acid)) (DTNB) then centrifuged at 3000 rpm for 15 min. The absorbance was recorded at 412 nm. A series of standards treated in a similar way were also run to determine the glutathione content. The amount of glutathione is expressed as µmole/mg of tissue protein.
. […] The pink colored TBARS was measured photometrically at 532 nm and tissue MDA was determined from a standard curve and is expressed as nmole/mg of tissue protein. […]

[4] abbreviates: glibenclamide 0.5 mg/kg, morin 15, 30, and 50 mg/kg, vs diabetic control rats.
[5] abbreviates: glibenclamide 5 mg/kg, morin 15, 30, and 50 mg/kg body weight, serum, day 21, vs diabetic control.

As for `O=c1c(O)c(-c2ccc(O)cc2O)oc2cc(O)cc(O)c12` [Morin, 2-(2,4-Dihydroxyphenyl)-3,5,7-trihydroxychromen-4-one], in data set [1] (setting [4]), the HDL cholesterol entry is given as “significantly increased (p < 0.01)”, the HbA1c level entry is given as “significant decrease (p < 0.01; p < 0.001)”, the LDL level entry is reported as “significant decrease (p < 0.01; p < 0.001)” and the TC level result is listed as “significant decrease (p < 0.01; p < 0.001)”. In addition, the TG level result in data set [1] (setting [4]) is recorded as “significant decrease (p < 0.01; p < 0.001)”. Further, the serum creatinine level entry in data set [1] (glibenclamide 5 mg/kg, morin 15, 30, and 50 mg/kg body weight, day 21, vs diabetic control) is “significantly reduced (p < 0.01; p < 0.001)”. In data set [1] (setting [5]), the ALP level result was “significantly reduced (p < 0.01; p < 0.001)”, the SGOT level result is listed as “significantly reduced (p < 0.01; p < 0.001)” and the SGPT level entry is on record as “significantly reduced (p < 0.01; p < 0.001)”. For the same compound, in the data set “Acute toxicity study”, the “acute toxicity (signs of toxicity, mortality)” value is “safe and nontoxic up to 500 mg/kg body weight”. Also, the “% DPPH inhibition activity in the pancreas tissues” value (from here on “% DPPH inhibition activity”) in data set [2] (morin 2 treated group, diabetic control 22.41 ± 4.25) came out at 49.88 ± 3.21%. Besides, the “% DPPH inhibition activity” value in data set [2] (morin 5 treated group) worked out at 52.66 ± 2.81%. The “% DPPH inhibition activity” value in data set [2] (morin 10 treated group) came to 60.42 ± 2.12%. Moreover, the “% DPPH inhibition activity” value in data set [2] (morin 15 treated group) was 65.33 ± 22.13%. Also, the “% DPPH inhibition activity” value in data set [2] (morin 30 treated group) is 69.33 ± 3.12%. Moreover, in data set [2] (morin 50 treated group), the “% DPPH inhibition activity” value amounted to 71.42 ± 3.23%. Also, the “MDA level (lipid peroxidation)” value in data set [3] (morin 2, 5, 10, 15, 30, and 50 µg/kg body weight, pancreas tissue homogenates) is recorded as “significantly (p < 0.05, p < 0.01, p < 0.001) decreased”. Further, the GPx activity result in data set [3] (morin, pancreatic tissues homogenates of diabetic rats) is given as “significantly increased”.

The values are drawn from paper PMC8348310, “Antioxidants Isolated from Elaeagnus umbellata (Thunb.) Protect against Bacterial Infections and Diabetes in Streptozotocin-Induced Diabetic Rat Model” (Molecules, 2021).
